As a reminder, the Ki is the dissociation constant of the complex between target and ligand, obtained from inhibition or displacement.

In the test the target is T1, human leukocyte elastase (Homo sapiens, UniProt P08246).
T1 sequence (P08246 30-267): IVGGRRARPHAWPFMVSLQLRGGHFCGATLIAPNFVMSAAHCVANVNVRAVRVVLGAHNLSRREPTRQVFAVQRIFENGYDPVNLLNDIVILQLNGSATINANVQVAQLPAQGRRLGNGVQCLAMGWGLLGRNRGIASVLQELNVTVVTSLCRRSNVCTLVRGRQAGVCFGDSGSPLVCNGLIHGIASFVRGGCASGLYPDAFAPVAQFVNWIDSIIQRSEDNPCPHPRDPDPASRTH
The test can be described thus: human leukocyte elastase (HLE) inhibition, in vitro, substrate MeOSuc-Ala-Ala-Pro-Val-pNA. The test is classed as biochemical. The conditions noted are these: pH 7.8 at 25° C., absorbance at 410 nm, read-out: Ki, human leukocyte elastase inhibitory activity. The protocol: The test compound (inhibitor) is dissolved in DMSO in a vial to produce an inhibitor stock solution which has a concentration in the range of 200-1000 μM. The inhibitor stock solution is diluted (1:4, 1:16 and 1:64) into assay vials (vials 1, 2 and 3 respectively) containing 2.4 mL of buffer solution (50 mM N- 2-hydroxyethyl!piperazine-N'- 2-ethanesulfonic acid!/NaOH, 500 mM NaCl, pH 7.8 at 25° C.) and DMSO is added so that the total volume in each vial is 3.2 mL. 70 μL, 50 μL, 35 μL and 25 μL of inhibitor from assay vial 1 is placed into the first four wells of a 96-well microtiter plate and each well is made up to 90 μL total volume with the addition of a 25% DMSO/buffer solution. […]
The 96-well microtiter plate is placed into a Microplate Reader #89815A spectrophotometer and 110 BL of the enzyme solution (prepared as follows: a mixture of 20 mL of buffer solution and 20 mg of bovine serum albumen is gently vortexed in a scintillation vial and 5 BL HLE stock solution (1 mg/mL dissolved in deionized water) is added) is added simultaneously to each of the 16 wells. Each of the solutions in the wells is throughly mixed and then the time-dependent absorbance data is collected at an absorbance of 410 nm until the assay is complete. […]
A plot of the absorbance versus time data thus obtained affords progress curves the final slope of which is equal to the final steady-state velocities (VF). […]

With `CC(C)CCC1C(=O)N(COc2cc(=O)n3ccccc3n2)S(=O)(=O)N1C` (stereo not shown) [Example 1(j), 2-(4-oxo-4-H-pyrido 1,2-a!pyrimidin-2-yl-oxymethyl)-4-(3-methylbutyl)-5-methyl-1,2,5-thiadiazolidin-3-one 1,1-dioxide], the inhibition constant (Ki) stood at 0.79 nM.

The record behind these values is patent US5512576A, “2-substituted 1,2,5,-thiadiazolidin-3-one 1,1-dioxides and compositions and method of use thereof” (Sterling Winthrop Inc., priority 1994, dated 1996).
